What was measured:
[1] = system: Type IV Collagen; test: Type IV Collagen Assay (ELISA, fibroblast culture medium); assay type: cell-based, human; settings: 10 μg/ml, 48 hours; untreated 7.76 ± 0.92
Experimental: (§1) In the study, human neonatal fibroblasts were seeded into the individual wells of a 48-well plate in 0.25 ml of Fibroblasts Growth Media (FGM) and incubated overnight at 37±2° C. and a 5±1% CO2 atmosphere. On the following day the media was removed via aspiration to eliminate non-adherent cells and replaced with 0.5 ml of fresh FGM. The cells were grown until confluent, with a media change every 48 to 72 hours. Upon reaching confluency the cells were treated for 24 hours with Dulbecco's Modified Eagle's medium (DMED) supplemented with 1.5% Fetal Bovine Serum (FBS) to wash out any effects from the growth factors included in the normal culture media. After this 24-hour wash out period the cells were treated with the test materials at the specified concentrations dissolved in FGM with 1.5% FBS. Sodium ascorbate (10 ug/ml) was used as a positive control. Untreated cells (negative controls) only received DMEM with […], The cells were incubated for 48 hours and at the end of the incubation period, cell culture medium was collected and either stored frozen (−75 C) or assayed immediately. Materials were tested in triplicate.
A series of type IV collagen peptide standards was prepared ranging from 0 ng/ml to 640 ng/ml. 100 μl of each standard or of each of the collected tissue culture media were added to the wells of type IV collagen ELISA plates. The plates were then incubated at 37° C. for 1 hour. After incubation, the ELISA plates were then washed twice with wash buffer, followed by the addition of 100 μl of detection antibody solution. The ELISA plates were then incubated for 1 hour at 37° C. Following incubation, the ELISA plates were washed with wash solution followed by the addition of 100 μl HEP conjugate solution and incubated at 37° C. for 30 minutes. Following the latter incubation, the ELISA plates were again washed and 100 μl of the substrate solution was added to each well and the well plates incubated for 10-30 minutes at room temperature to allow the color generation reaction to occur. At the end of the color generation reaction 100 μl of stop solution (1 N sulfuric acid) was added to each well and the plates read at 460 nm using a plate reader.
(§2) To quantify the amount of each substance present, a standard curve was generated using known concentrations of each substance. A regression analysis was performed to establish the line that best fit those data points. Absorbance values for the test materials and untreated samples were used to estimate the amount of each substance present in each sample. Treatment means were compared using ANOVA, with an […] per treatment. Statistical significance was set at p≤0.05.

[2] = system: Type I Collagen; test: Type I Collagen Assay (ELISA, fibroblast culture medium); assay type: cell-based, human; settings: 10 μg/ml, 48 hours; untreated 1255 ± 83
Experimental: as §1
A series of type I collagen peptide standards was prepared ranging from 0 ng/ml to 640 ng/ml. An ELISA microplate was prepared by removing any unneeded strips from the plate frame followed by the addition of 100 μl of peroxidase labelled anti-procollagen type I-C peptide antibody to each well used in the assay. A 20 μl sample of each of the collected tissue culture media or a standard was then added to appropriate wells and the microplate covered and allowed to incubate for 3±0.25 hours at 37 C. Following incubation, the wells were aspirated and washed three times with 400 μl of wash buffer. After the last wash was remove 100 μl of peroxidase substrate solution (hydrogen peroxide+tetramethylbenzidine as a chromogen) was added to each well and the plate incubated for 15±4 minutes at room temperature. Following this incubation, 100 μl of stop solution (1 N sulfuric acid) was added to each well and the plate read using a microplate reader at 450 nm.
as §2

[3] = system: Telomerase; test: Telomerase Activity Quantification qPCR Assay in human dermal fibroblasts; assay type: cell-based; settings: 300 nM, three days
Experimental: Normal neonatal human dermal fibroblasts (HDF cat, #2310; ScienCell, Oceanside, CA) were grown to confluence in the 6 well plate format and incubated with the test substances identified in Table 3 for three days. Following incubation, the cells were lysed and telomerase activity was determined with Telomerase Activity Quantification qPCR Assay Kit from ScienCell (cat. #8928). Forget-Me-Not™ EvaGreen® qPCR Master Mix (Low ROX) (Biotium, Fremont, CA) was used for real-time quantitative PCR on C1000 Touch System with CFX384™ optical module Detection. For quantifying the level of activity, the Comparative Cq method was used, following the equation: […]
where TPS is telomere primer set, which recognizes and amplifies newly synthesized telomere sequences and Cq(TPS) is the Quantification Cycle Value obtained from the qPCR software. The relative telomerase activity difference between the experimental condition and control is expressed as 2^−ΔCq Telomerase activity was considered different if the level of expression was reasonably high (Cq≤33 cycles to detect), the difference vs. control was >2 fold and the p value, assessed with two-tailed Student test, was <0.05.

[4] = target: T1, MAGL (Homo sapiens, UniProt Q99685); test: MAGL inhibitory assay; assay type: biochemical
T1 construct: purchased Cayman 10007812
T1 sequence (Q99685 1-303): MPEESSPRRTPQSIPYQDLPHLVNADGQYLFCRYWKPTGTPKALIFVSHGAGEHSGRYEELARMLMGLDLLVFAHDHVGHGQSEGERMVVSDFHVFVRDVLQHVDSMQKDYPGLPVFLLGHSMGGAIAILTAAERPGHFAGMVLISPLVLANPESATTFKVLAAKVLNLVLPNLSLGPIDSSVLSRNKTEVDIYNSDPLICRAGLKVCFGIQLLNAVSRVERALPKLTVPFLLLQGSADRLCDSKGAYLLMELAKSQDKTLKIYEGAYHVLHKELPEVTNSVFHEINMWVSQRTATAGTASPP
Experimental: Each study was performed in duplicate and the results averaged.
The final concentration in each well was 10 μl of sample, 5.6 μM MAGL (Cayman Catalog #10007812) and 23.6 μM 2-Arachidonoyl Glycerol (Cayman catalog #62160).

[5] = target: HDAC 4 (Homo sapiens, UniProt P56524); test: HDAC 4 fluorogenic assay kit
Sequence of HDAC 4 (P56524 whole entry): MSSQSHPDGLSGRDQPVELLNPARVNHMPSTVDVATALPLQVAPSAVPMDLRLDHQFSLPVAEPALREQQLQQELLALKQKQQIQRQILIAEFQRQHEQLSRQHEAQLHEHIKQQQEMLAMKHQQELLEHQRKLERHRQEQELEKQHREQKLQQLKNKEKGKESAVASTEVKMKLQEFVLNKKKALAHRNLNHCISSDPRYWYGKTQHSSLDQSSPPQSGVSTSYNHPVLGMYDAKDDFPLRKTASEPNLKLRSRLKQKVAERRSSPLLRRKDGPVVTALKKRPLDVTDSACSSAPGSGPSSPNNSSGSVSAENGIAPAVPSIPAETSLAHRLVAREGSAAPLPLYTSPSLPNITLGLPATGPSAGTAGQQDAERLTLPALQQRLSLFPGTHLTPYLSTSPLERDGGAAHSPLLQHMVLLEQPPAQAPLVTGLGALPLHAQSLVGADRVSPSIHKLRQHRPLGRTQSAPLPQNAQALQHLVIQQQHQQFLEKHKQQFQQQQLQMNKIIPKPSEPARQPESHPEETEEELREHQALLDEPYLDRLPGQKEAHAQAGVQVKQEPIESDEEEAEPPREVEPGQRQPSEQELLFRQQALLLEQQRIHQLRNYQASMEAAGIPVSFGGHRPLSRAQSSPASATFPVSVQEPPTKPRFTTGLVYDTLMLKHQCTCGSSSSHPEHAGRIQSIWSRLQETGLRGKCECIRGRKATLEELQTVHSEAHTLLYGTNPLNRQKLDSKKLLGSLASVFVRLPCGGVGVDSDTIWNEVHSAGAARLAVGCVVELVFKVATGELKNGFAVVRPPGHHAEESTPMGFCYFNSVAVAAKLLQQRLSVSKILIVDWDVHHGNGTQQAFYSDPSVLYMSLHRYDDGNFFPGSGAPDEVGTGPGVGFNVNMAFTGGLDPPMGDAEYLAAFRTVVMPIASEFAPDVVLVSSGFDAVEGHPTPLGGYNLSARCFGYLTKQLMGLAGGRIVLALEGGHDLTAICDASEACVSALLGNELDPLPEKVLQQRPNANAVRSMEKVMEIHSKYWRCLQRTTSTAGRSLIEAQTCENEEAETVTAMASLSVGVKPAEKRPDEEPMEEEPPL
Experimental: Test materials were stored at room temperature and stock solutions were prepared at 20 mg/ml in DMSO. Further dilutions were made in sterile distilled water immediately before being added to the reaction mixture containing a substrate, and the reaction was triggered by the addition of purified HDAC enzymes, Double distilled water was the negative control and trichostatin (1.5 ug/ml) was used as a positive control for validation of each study. The test procedure was as directed in the assay kits. The products of the reactions were measured by fluorometry at ex/em 350/450 nm using multi-well plate fluorometer Cytofluor 4000 (Applied Biosystem, Foster City, CA) or using SpectraMax i3× Multi-Mode Detection Platform from Molecular Devices (Sunnyvale, CA).
Statistical significance was assessed with a two-tail Student test. Deviations of ≤20% as compared to water control with p values below 0.05 were considered statistically significant.

O=C1O[C@H]([C@@H](O)CO)C([O-])=C1O.[Na+] [Na ascorbate, Sodium ascorbate]
Type IV Collagen C-Peptide [1]: 67.70 ± 5.03 ng/mL
Type I Collagen C-Peptide [2]: 4018 ± 196 ng/mL

CC(/C=C/C(=O)NO)=C\[C@@H](C)C(=O)c1ccc(N(C)C)cc1 [Trichostatin-A]
Average Cq(TPS) [3]: 32.3
Telomerase Activity (FC vs. water) [3]: 2.8 FC
ΔCq sample-water [3]: 1.5

C=C(C)[C@@H]1CCC(C)=C[C@H]1c1c(O)cc(CCCCC)cc1O [CBD, Cannabidiol, reference compound]
MAGL IC50 [4]: 4,130^2 ^ μg/ml

CCCC(=O)[O-].CCCC(=O)[O-].[Ca+2] [Ca n-butyrate, reference compound]
HDAC 4 activity, % of water-treated controls ([5]; 25 ug/ml): 104%
HDAC 4 activity, % of water-treated controls ([5]; 50 ug/ml): 102%
HDAC 4 activity, % of water-treated controls ([5]; 100 ug/ml): 109%

Reference: patent US20260041620A1, “NOVEL AMINO ACID BASED SALTS, COMPOSITIONS AND METHODS FOR TREATING SKIN AND IMPROVING SKIN REJUVENATION AND LONGEVITY” (Sytheon Ltd, priority 2023, published 2026)
